Data: US20150231147A1, “METHODS FOR ACUTE AND LONG-TERM TREATMENT OF DRUG ADDICTION” (DemeRx, Inc., priority 2014, published 2015)

Test: Plasma noribogaine glucuronide pharmacokinetics after noribogaine dosing, healthy volunteers
Format: in vivo, human
Details: for AUC0-216 / AUC0-∞ / Cmax / Tmax / t1/2: healthy male volunteers, mean (n = 6)
[1] = plasma glucuronide after single oral 30 mg noribogaine
[2] = plasma glucuronide after single oral 60 mg noribogaine

CC[C@H]1C[C@@H]2C[C@H]3c4[nH]c5ccc(OC6OC(C(=O)O)C(O)C(O)C6O)cc5c4CCN(C2)[C@@H]13 (some centres unmarked) [Noribogaine glucuronide]
Mean half-life of plasma noribogaine glucuronide (30 mg and 60 mg noribogaine dose groups): 21 to 23 h
proportion of noribogaine glucuronide Cmax and AUC relative to noribogaine (both dose groups (30 mg and 60 mg)): 3-4%
AUC0-216 [1]: 25.7 ng·h/mL
AUC0-∞ [1]: 25.8 ng·h/mL
Cmax [1]: 1.8 ng/mL
Tmax [1]: 3.0 h
t1/2 [1]: 20.6 h
AUC0-216 [2]: 65.0 ng·h/mL
AUC0-∞ [2]: 67.1 ng·h/mL
Cmax [2]: 4.1 ng/mL
Tmax [2]: 3.8 h
t1/2 [2]: 23.1 h
time of peak concentrations after noribogaine dosing (plasma glucuronide, 30 mg and 60 mg noribogaine dose groups): 3 to 4 h
time by which noribogaine glucuronide was detected in all subjects (plasma, 30 mg and 60 mg noribogaine dose groups): ≤ 0.75 h
